The text below walks through data of US20030054291A1, “Optical data storage medium containing a hemicyanine dye as the light-absorbing compound in the information layer” (priority 2001, published 2003).

The nature of this series: Solubility in TFP (2,2,3,3-tetrafluoropropanol). The series is classed as physicochemical. The text has this: Solubility: >2% in TFP (2,2,3,3-tetrafluoropropanol)

SMILES strings stand for the structures.

The compound `CN(C)c1ccc(/C=C/C2=[N+](C)c3ccccc3C2(C)C)o1` [Example 1] yielded a Solubility of more than 2%.
